Test results published in patent publication US8809369B2, “Tetrahydroquinoline derivatives” (Hoffmann-La Roche Inc., priority 2011, dated 2014).

Tested on: AMP-activated protein kinase (AMPK)
Assay: p-AMPK expression level in L6 cell line by Western blot
Type: cell-based
Settings: L6 cells, 2 hours compound treatment
Description: Evaluation of p-AMPK and p-ACC expression level in L6 cell line by Western-Blot
This method evaluates the changes of AMP-activated protein kinase (AMPK) and ACC (acetyl-CoA carboxylase) activity by small molecular modulators through detecting the level of p-AMPK and p-ACC proteins in L6 cells using Western blot.
L6 cells are maintained in DMEM medium supplemented with 10% FBS in 10-cm dishes. Prior to compounds treatment, L6 cells are seeded in 12-well-plates at concentration of 3×10^4 cells per well. After 24 hours of incubation in 12-well plates, L6 cells are differentiated by replacing the 10% FBS-DMEM medium with 2% FBS-DMEM. Differentiation usually takes 5 days, during which the culture medium is changed every 2 days.
The compound concentrations typically range from 32 μM to 0.5 μM with 2-fold dilution in 2 ml DMEM and 7 doses. The final DMSO concentration is 0.4%. Berberine is used as a positive control at concentration of 16 μM. Before compound treatment, starve L6 cells for 2 hours by replacing the medium with DMEM, and then gently aspirate the media from each well. Add the compounds into the plates and incubate at 37 degree 5% CO2 for 2 hours.
Prepare lysis buffer (RIPA buffer with protease-inhibitors and phosphorate-inhibitors) and place it on ice. After two hour's compound treatment, aspirate the medium from 12-well plates, add 70 ul lysis buffer to each well and keep the plates on ice for 5 min. Then scrape the cell lysate off the plates and transfer it to 1.5 ml eppendorf tubes. Keep the tube on ice for more 10 min, centrifugate the lysate at 13000 rpm, 4 degrees for 15 min and transfer the supernatant to clean tubes.
Determine protein concentration for each sample using Quickstart Bradford protein quantitation kit. Mix 20 ug protein sample with 4 times loading buffer, heat them at 100° C. for 5 min, store the sample in −80° C. or perform Western blot assay directly. For Western blot assay, load 20 ug samples and 10 ul Pre-stained Protein Maker into 4-12% SDS-PAGE gradient gel. Run the samples at 100 V in the stacking gel and at 120 V in resolving gel until the Bromophenol dye reaches the bottom. Transfer the electrophoresed proteins to a PVDF membrane using Bio-Rad's Transblot for 120 min at 300 mA. Following the completion of transfer, the membrane is blocked with 5% non-fat milk for 2 hours at room temperature before incubated with primary antibody (p-AMPK and p-ACC) at 4° C. overnight. On the next day wash the membrane twice with TBST, add secondary antibody and incubate for 1 hour at room temperature. Wash the membrane twice with TBST. Develop p-AMPK and p-ACC protein expression level on the film in dark room with Amersham ECL plus kit. The bands of each sample are quantitated by Bio-Rad system, The AC1.3 value is analyzed using Prism 5.0.

Row | SMILES | Activity AC1.3 (AMPKp)
1 | CS(=O)(=O)NC(=O)c1ccc2c(c1)C1(CCCC1)CC(c1cccc(N3CCOCC3)c1)N2 (stereo not shown) [Example 5, N-(methylsulfonyl)-2′-(3-morpholinophenyl)-2′,3′-dihydro-1′H-spiro[cyclopentane-1,4′-quinoline]-6′-carboxamide] | 9 µM
2 | CC1(C)CC(c2cc(N3CCOCC3)ccc2Cl)Nc2ccc(C(=O)NS(=O)(=O)C3CC3)cc21 (stereo not shown) [Example 25, Cyclopropanesulfonic acid [2-(2-chloro-5-morpholin-4-yl-phenyl)-4,4-dimethyl-1,2,3,4-tetrahydro-quinoline-6-carbonyl]-amide] | 0.21 µM
3 | Cc1ccc(N2CCOC2=O)cc1C1CC(C)(C)c2cc(C(=O)NS(C)(=O)=O)ccc2N1 (stereo not shown) [Example 27, N-{4,4-dimethyl-2-[2-methyl-5-(2-oxo-oxazolidin-3-yl)-phenyl]-1,2,3,4-tetrahydro-quinoline-6-carbonyl}-methanesulfonamide] | 0.01 µM
4 | Cc1ccc(N2CCOC2=O)cc1C1CC(C)(C)c2cc(C(=O)NS(=O)(=O)C3CC3)ccc2N1 (stereo not shown) [Example 28, Cyclopropanesulfonic acid {4,4-dimethyl-2-[2-methyl-5-(2-oxo-oxazolidin-3-yl)-phenyl]-1,2,3,4-tetrahydro-quinoline-6-carbonyl}-amide] | 0.02 µM
5 | CC1(C)CC(c2cccc(C(N)=O)c2)Nc2ccc(C(=O)NS(C)(=O)=O)cc21 (stereo not shown) [Example 32, 3-(6-Methanesulfonylaminocarbonyl-4,4-dimethyl-1,2,3,4-tetrahydroquinolin-2-yl)-benzamide] | 0.002 µM
6 | CC1(C)CC(c2cccc(C#N)c2)Nc2ccc(C(=O)NS(C)(=O)=O)cc21 (stereo not shown) [Example 33, N-[2-(3-cyano-phenyl)-4,4-dimethyl-1,2,3,4-tetrahydro-quinoline-6-carbonyl]-methanesulfonamide] | 0.08 µM
7 | CC1(C)CC(c2cccc(C(N)=O)c2)Nc2ccc(C(=O)NS(=O)(=O)C3CC3)cc21 (stereo not shown) [Example 34, 3-(6-Cyclopropanesulfonylaminocarbonyl-4,4-dimethyl-1,2,3,4-tetrahydro-quinolin-2-yl)-benzamide] | 0.08 µM
8 | CC1(C)CC(c2cccc(C#N)c2)Nc2ccc(C(=O)NS(=O)(=O)C3CC3)cc21 (stereo not shown) [Example 35, Cyclopropanesulfonic acid [2-(3-cyano-phenyl)-4,4-dimethyl-1,2,3,4-tetrahydro-quinoline-6-carbonyl]-amide] | 0.24 µM
9 | Cc1ccc(N2CCN(c3cncc(C4CC(C)(C)c5cc(C(=O)NS(=O)(=O)C6CC6)ccc5N4)c3)CC2)c(C)c1 (stereo not shown) [Example 50, Cyclopropanesulfonic acid (2-{5-[4-(2,4-dimethyl-phenyl)-piperazin-1-yl]-pyridin-3-yl}-4,4-dimethyl-1,2,3,4-tetrahydro-quinoline-6-carbonyl)-amide] | 0.16 µM
10 | CN1CCN(c2cccc(C3CC(C)(C)c4cc(C(=O)NS(=O)(=O)C5CC5)ccc4N3)c2)CC1 (stereo not shown) [Example 51, Cyclopropanesulfonic acid {4,4-dimethyl-2-[3-(4-methyl-piperazin-1-yl)-phenyl]-1,2,3,4-tetrahydro-quinoline-6-carbonyl}-amide] | 0.18 µM
11 | CC1(C)CC(c2cccc(N3CCCC3)c2)Nc2ccc(C(=O)NS(=O)(=O)C3CC3)cc21 (stereo not shown) [Example 52, Cyclopropanesulfonic acid [4,4-dimethyl-2-(3-pyrrolidin-1-yl-phenyl)-1,2,3,4-tetrahydro-quinoline-6-carbonyl]-amide] | 0.55 µM
12 | CC1(C)CC(c2cncc(N3CCOCC3)c2)Nc2ccc(C(=O)NS(=O)(=O)C3CC3)cc21 (stereo not shown) [Example 54, Cyclopropanesulfonic acid [4,4-dimethyl-2-(5-morpholin-4-yl-pyridin-3-yl)-1,2,3,4-tetrahydro-quinoline-6-carbonyl]-amide] | 0.03 µM
13 | CC1(C)CC(c2cccc(N3CCOCC3)c2)Nc2c(C(=O)NS(C)(=O)=O)cc(F)cc21 (stereo not shown) [Example 56, N-[6-fluoro-4,4-dimethyl-2-(3-morpholin-4-yl-phenyl)-1,2,3,4-tetrahydro-quinoline-8-carbonyl]-methanesulfonamide] | 0.03 µM
14 | CN(C)c1cccc(C2CC(C)(C)c3cc(Cl)cc(C(=O)NS(=O)(=O)C4CC4)c3N2)c1 (stereo not shown) [Example 61, Cyclopropanesulfonic acid [6-chloro-2-(3-dimethylamino-phenyl)-4,4-dimethyl-1,2,3,4-tetrahydro-quinoline-8-carbonyl]-amide] | 0.1 µM
15 | CC1(C)CC(c2cccc(N3CCOC3=O)c2)Nc2c(C(=O)NS(C)(=O)=O)cc(Cl)cc21 (stereo not shown) [Example 64, N-{6-chloro-4,4-dimethyl-2-[3-(2-oxo-oxazolidin-3-yl)-phenyl]-1,2,3,4-tetrahydro-quinoline-8-carbonyl}-methanesulfonamide] | 0.1 µM
16 | Cc1cc(C(=O)NS(=O)(=O)C2CC2)cc2c1NC(c1cccc(N3CCOCC3)c1)CC2(C)C (stereo not shown) [Example 66, Cyclopropanesulfonic acid [4,4,8-trimethyl-2-(3-morpholin-4-yl-phenyl)-1,2,3,4-tetrahydro-quinoline-6-carbonyl]-amide] | 12.8 µM
17 | CN1CCN(c2cccc(C3CC(C)(C)c4cccc(C(=O)NS(C)(=O)=O)c4N3)c2)CC1 (stereo not shown) [Example 67, N-{4,4-dimethyl-2-[3-(4-methyl-piperazin-1-yl)-phenyl]-1,2,3,4-tetrahydro-quinoline-8-carbonyl}-methanesulfonamide] | 0.02 µM
18 | Cc1ccc(N2CCN(c3cccc(C4CC(C)(C)c5cc(F)cc(C(=O)NS(C)(=O)=O)c5N4)c3)CC2)cc1 (stereo not shown) [Example 68, N-{6-fluoro-4,4-dimethyl-2-[3-(4-p-tolyl-piperazin-1-yl)-phenyl]-1,2,3,4-tetrahydro-quinoline-8-carbonyl}-methanesulfonamide] | 0.003 µM
19 | CC1(C)CC(c2cccc(N3CCCC3)c2)Nc2c(C(=O)NS(C)(=O)=O)cc(Cl)cc21 (stereo not shown) [Example 71, N-[6-chloro-4,4-dimethyl-2-(3-pyrrolidin-1-yl-phenyl)-1,2,3,4-tetrahydro-quinoline-8-carbonyl]-methanesulfonamide] | 0.08 µM
20 | CC1(C)CC(c2ccc(F)c(Cl)c2)Nc2ccc(C(=O)NS(=O)(=O)C3CC3)nc21 (stereo not shown) [Example 78, Cyclopropanesulfonic acid [6-(3-chloro-4-fluoro-phenyl)-8,8-dimethyl-5,6,7,8-tetrahydro-[1,5]naphthyridine-2-carbonyl]-amide] | 28.9 µM
21 | CC1(C)CC(c2cccc(N3CCOCC3)c2)Nc2ccc(C(=O)NS(=O)(=O)C3CC3)nc21 (stereo not shown) [Example 79, Cyclopropanesulfonic acid [8,8-dimethyl-6-(3-morpholin-4-yl-phenyl)-5,6,7,8-tetrahydro-[1,5]naphthyridine-2-carbonyl]-amide] | 4.46 µM
22 | CC1(C)CC(c2ccc(F)c(Cl)c2)Nc2ccc(C(=O)NS(C)(=O)=O)nc21 (stereo not shown) [Example 81, N-[6-(3-chloro-4-fluoro-phenyl)-8,8-dimethyl-5,6,7,8-tetrahydro-[1,5]naphthyridine-2-carbonyl]-methanesulfonamide] | 0.43 µM
